In series [1] the test system is L6. The series is described as follows: Cytotoxicity against rat L6 cells after 72 hrs by Alamar blue assay. It is filed as cell-based. To be noted: L6, 72 h.
A further series relates to Plasmodium falciparum. The series is described as follows: Antiprotozoal activity against erythrocytic stages of Plasmodium falciparum K1 by [3H]hypoxanthine incorporation assay. It is filed as functional, organism-based.
For the next series, the system named is Leishmania donovani. The series is described as follows: Antiprotozoal activity against amastigote/ axenic stage of Leishmania donovani MHOM-ET-67/L82 after 72 hrs by Alamar blue assay. In kind it is functional, organism-based. To be noted: MHOM-ET-67/L82, 72 h.
A further series concerns Trypanosoma cruzi. The series is described as follows: Antiprotozoal activity against Trypanosoma cruzi Tulahuen C4 amastigotes after 96 hrs. To be noted: Tulahuen C4, 96 h. It is filed as functional, organism-based.
The test system of series [2] is Trypanosoma brucei rhodesiense. The series is described as follows: Antiprotozoal activity against Trypanosoma brucei rhodesiense STIB 900 after 72 hrs by Alamar blue assay. To be noted: STIB 900, 72 h. In kind it is functional, organism-based. On the technique in general: The colour change of resazurin is a common sign of viable cells or microbes.
Series [3] has as its system L6. The series is described as follows: Cytotoxicity against rat L6 cells at 10 uM after 72 hrs by Alamar blue assay. To be noted: l6, 72 h. It is filed as cell-based.

26 compounds from ChEMBL document CHEMBL2311501, “Discovery and preliminary structure-activity relationship analysis of 1,14-sperminediphenylacetamides as potent and selective antimalarial lead compounds” (Bioorg Med Chem Lett, 2013) can be followed below.

The term IC50 denotes the concentration at which inhibition is half-maximal. A higher IC50 goes with weaker potency in that assay.

Take `COc1cc(CC(=O)NCCN(C)C)ccc1O`: the IC50 in the series with L6 [1] is greater than 250 µM; with Plasmodium falciparum it was greater than 14 µM; in the series on Leishmania donovani, greater than 250 µM; in the series with Trypanosoma cruzi, greater than 250 µM; in series [2], 170 µM.

Regarding `O=C(Cc1ccc(O)c(O)c1)NCCCCNCCCNC(=O)Cc1ccc(O)c(O)c1`, the Activity entry in the series on L6 [3] is on record as “Non-toxic”. Moreover, the IC50 in the series with L6 [1] was 97 µM; in the series on Plasmodium falciparum, 7.9 µM; in the series on Leishmania donovani, greater than 160 µM; with Trypanosoma cruzi, greater than 160 µM; in series [2], 5.9 µM.

As to `O=C(Cc1cccc(O)c1)NCCCNCCNC(=O)Cc1cccc(O)c1`, the 50% inhibitory concentration (IC50) with L6 [1] was greater than 180 µM; in the series with Plasmodium falciparum, greater than 10 µM; in the series on Leishmania donovani, greater than 180 µM; with Trypanosoma cruzi, greater than 180 µM; in series [2] it was 120 µM.

For the compound `NCCCNCCCCNCCCNC(=O)Cc1ccccc1`, the values for the IC50 with L6 [1] and in the series on Plasmodium falciparum were 94 µM and 35 µM, respectively.

Consider `O=C(Cc1ccc(O)cc1)NCCCNCCCCNCCCNC(=O)Cc1ccc(O)cc1`, for which the Activity entry with L6 [3] was “Non-toxic”. For the same compound, the IC50 in the series on L6 [1] was 130 µM; with Plasmodium falciparum, 0.14 µM; in the series with Leishmania donovani, greater than 130 µM; in the series on Trypanosoma cruzi, greater than 130 µM; in series [2] it was 86 µM.

For `O=C(Cc1cccc(O)c1)NCCCNCCCCNCCCNC(=O)Cc1cccc(O)c1`, the Activity entry with L6 [3] is “Non-toxic”. Besides, the concentration for half-maximal inhibition (IC50) with L6 [1] was greater than 130 µM; in the series on Plasmodium falciparum, 0.17 µM; in the series on Leishmania donovani, greater than 130 µM; with Trypanosoma cruzi it was greater than 130 µM; in series [2] it was 87 µM.

As for `O=C(Cc1ccc(O)c(O)c1)NCCCNCCCCNCCCNC(=O)Cc1ccc(O)c(O)c1`, the Activity result in the series with L6 [3] is given as “Non-toxic”. Also, the concentration for half-maximal inhibition (IC50) with L6 [1] was 85 µM; with Plasmodium falciparum, 4.8 µM; in the series with Leishmania donovani, greater than 120 µM; in the series with Trypanosoma cruzi, greater than 120 µM; in series [2], 3.2 µM.

Consider `O=C(Cc1ccc(O)c(O)c1)NCCCCNC(=O)Cc1ccc(O)c(O)c1`, for which the IC50 is 130 µM with L6 [1]; greater than 13 µM with Plasmodium falciparum; greater than 230 µM with Leishmania donovani; greater than 230 µM in the series with Trypanosoma cruzi; 3.3 µM in series [2].

Take `COc1cc(CC(=O)NCCCOCCOCCOCCCNC(=O)Cc2ccc(O)c(OC)c2)ccc1O`: the IC50 in the series with L6 [1] is greater than 160 µM; in the series with Plasmodium falciparum, greater than 9.1 µM; with Leishmania donovani, 150 µM; with Trypanosoma cruzi it was greater than 160 µM; in series [2] it was 110 µM.

Take `COc1cc(CC(=O)NCCCNCCNCCCNC(=O)Cc2ccc(O)c(OC)c2)ccc1O`: the concentration for half-maximal inhibition (IC50) with L6 [1] was greater than 120 µM; in the series with Plasmodium falciparum, greater than 6.8 µM; in the series with Leishmania donovani, greater than 120 µM; in the series on Trypanosoma cruzi, greater than 120 µM; in series [2] it was 120 µM.

Take `O=C(Cc1ccccc1)NCCCNCCCCNCCCNC(=O)C(F)(F)F`: the IC50 with L6 [1] worked out at 110 µM; in the series on Plasmodium falciparum, 8 µM.

For `O=C(Cc1ccccc1O)NCCCNCCNCCCNC(=O)Cc1ccccc1O`, the Activity entry in the series on L6 [3] is given as “Non-toxic”. Also, the concentration for half-maximal inhibition (IC50) with L6 [1] is greater than 130 µM; with Plasmodium falciparum, 0.61 µM; in the series on Leishmania donovani it was greater than 130 µM; in the series on Trypanosoma cruzi, greater than 130 µM; in series [2], 49 µM.

For the compound `COc1cc(CC(=O)NCCCNCCNC(=O)Cc2ccc(O)c(OC)c2)ccc1O`, the IC50 in the series on L6 [1] is greater than 160 µM; in the series with Plasmodium falciparum, greater than 8.9 µM; in the series on Leishmania donovani, greater than 160 µM; in the series on Trypanosoma cruzi, greater than 160 µM; in series [2], 110 µM.

As to `COc1cc(CC(=O)NCCCCNCCCNC(=O)Cc2ccc(O)c(OC)c2)ccc1O`, the half-maximal inhibitory concentration (IC50) was greater than 150 µM in the series with L6 [1]; greater than 8.5 µM in the series with Plasmodium falciparum; greater than 150 µM in the series on Leishmania donovani; greater than 150 µM in the series on Trypanosoma cruzi; 150 µM in series [2].

As for `O=C(Cc1ccccc1)NCCCCNC(=O)Cc1ccccc1`, the IC50 in the series with L6 [1] was greater than 280 µM; with Plasmodium falciparum, greater than 15 µM; with Leishmania donovani, greater than 280 µM; in the series on Trypanosoma cruzi, greater than 280 µM; in series [2], 110 µM.

On to `COc1cc(CC(=O)NCCN2CCOCC2)ccc1O`, for which the 50% inhibitory concentration (IC50) with L6 [1] is 210 µM; in the series with Plasmodium falciparum it was greater than 12 µM; in the series with Leishmania donovani it was greater than 220 µM; in the series on Trypanosoma cruzi it was greater than 220 µM; in series [2], 150 µM.

With `O=C(Cc1ccccc1)NCCCOCCOCCOCCCNC(=O)Cc1ccccc1`, the concentration for half-maximal inhibition (IC50) with L6 [1] was greater than 200 µM; with Plasmodium falciparum, greater than 11 µM; with Leishmania donovani, greater than 200 µM; in the series on Trypanosoma cruzi, greater than 200 µM; in series [2], 63 µM.

`COc1cc(CC(=O)NCCCCNC(=O)Cc2ccc(O)c(OC)c2)ccc1O`: the IC50 was greater than 220 µM in the series with L6 [1]; greater than 12 µM in the series with Plasmodium falciparum; greater than 220 µM in the series with Leishmania donovani; greater than 220 µM in the series with Trypanosoma cruzi; 210 µM in series [2].

For `COc1cc(CC(=O)NCCCNCCCCNCCCNC(=O)Cc2ccc(O)c(OC)c2)ccc1O`, the Activity entry in the series with L6 [3] is “Non-toxic”. Besides, the IC50 in the series with L6 [1] was greater than 120 µM; with Plasmodium falciparum, 0.89 µM; in the series with Leishmania donovani it was greater than 120 µM; in the series with Trypanosoma cruzi it was greater than 120 µM; in series [2], 78 µM.

Consider `O=C(Cc1ccccc1O)NCCCNCCCCNCCCNC(=O)Cc1ccccc1O`, for which the Activity result in the series with L6 [3] was “Non-toxic”. For the same compound, the half-maximal inhibitory concentration (IC50) with L6 [1] is greater than 130 µM; in the series with Plasmodium falciparum, 0.0086 µM; in the series with Leishmania donovani it was 110 µM; in the series on Trypanosoma cruzi it was greater than 130 µM; in series [2] it was 51 µM.

Turning to `COc1ccc(OC)c(CC(=O)NCCCNCCCCNCCCNC(=O)Cc2cc(OC)ccc2OC)c1`, the Activity entry in the series with L6 [3] was “Non-toxic”. Also, the IC50 stood at 88 µM in the series on L6 [1]; 0.019 µM in the series with Plasmodium falciparum; 35 µM with Leishmania donovani; 31 µM in the series on Trypanosoma cruzi; 38 µM in series [2].

As for `O=C(Cc1ccc(O)cc1)NCCCCNCCCNC(=O)Cc1ccc(O)cc1`, the IC50 in the series with L6 [1] was greater than 170 µM; in the series with Plasmodium falciparum, 3.6 µM; with Leishmania donovani, greater than 170 µM; with Trypanosoma cruzi, greater than 170 µM; in series [2], 120 µM.

`O=C(Cc1ccc(O)c(O)c1)NCCCOCCOCCOCCCNC(=O)Cc1ccc(O)c(O)c1`: the 50% inhibitory concentration (IC50) in the series on L6 [1] was 96 µM; with Plasmodium falciparum, greater than 9.6 µM; in the series with Leishmania donovani it was greater than 170 µM; with Trypanosoma cruzi it was greater than 170 µM; in series [2], 5.2 µM.

Compound `COc1cc([C@@H]2c3cc4c(cc3[C@H](O)[C@H]3COC(=O)[C@H]23)OCO4)cc(OC)c1OC` [PODOFILOX] registered a concentration for half-maximal inhibition (IC50) with L6 [1] of 0.019 µM.

For the compound `O=C(Cc1ccc(O)c(O)c1)NCCCNCCNC(=O)Cc1ccc(O)c(O)c1`, the Activity result in the series on L6 [3] is given as “Non-toxic”. Further, the IC50 is 140 µM in the series with L6 [1]; greater than 9.4 µM in the series with Plasmodium falciparum; greater than 170 µM in the series with Leishmania donovani; greater than 170 µM in the series with Trypanosoma cruzi; 7.5 µM in series [2].

In the case of `O=C(Cc1ccccc1)NCCCNCCCCNCCCNC(=O)Cc1ccccc1`, the Activity result in the series with L6 [3] was “Non-toxic”. The IC50 in the series on L6 [1] is greater than 140 µM; in the series with Plasmodium falciparum, 0.14 µM; with Leishmania donovani it was 90 µM; in the series on Trypanosoma cruzi, greater than 140 µM; in series [2], 96 µM.
